The supplement of paper PMC12076712

How the values were obtained:
Test in all cases: pIC50, kinobeads binding competition
BCR = target: T1, BCR (UniProt P11274); conditions: cell material: Lysate mix
T1 sequence (whole entry): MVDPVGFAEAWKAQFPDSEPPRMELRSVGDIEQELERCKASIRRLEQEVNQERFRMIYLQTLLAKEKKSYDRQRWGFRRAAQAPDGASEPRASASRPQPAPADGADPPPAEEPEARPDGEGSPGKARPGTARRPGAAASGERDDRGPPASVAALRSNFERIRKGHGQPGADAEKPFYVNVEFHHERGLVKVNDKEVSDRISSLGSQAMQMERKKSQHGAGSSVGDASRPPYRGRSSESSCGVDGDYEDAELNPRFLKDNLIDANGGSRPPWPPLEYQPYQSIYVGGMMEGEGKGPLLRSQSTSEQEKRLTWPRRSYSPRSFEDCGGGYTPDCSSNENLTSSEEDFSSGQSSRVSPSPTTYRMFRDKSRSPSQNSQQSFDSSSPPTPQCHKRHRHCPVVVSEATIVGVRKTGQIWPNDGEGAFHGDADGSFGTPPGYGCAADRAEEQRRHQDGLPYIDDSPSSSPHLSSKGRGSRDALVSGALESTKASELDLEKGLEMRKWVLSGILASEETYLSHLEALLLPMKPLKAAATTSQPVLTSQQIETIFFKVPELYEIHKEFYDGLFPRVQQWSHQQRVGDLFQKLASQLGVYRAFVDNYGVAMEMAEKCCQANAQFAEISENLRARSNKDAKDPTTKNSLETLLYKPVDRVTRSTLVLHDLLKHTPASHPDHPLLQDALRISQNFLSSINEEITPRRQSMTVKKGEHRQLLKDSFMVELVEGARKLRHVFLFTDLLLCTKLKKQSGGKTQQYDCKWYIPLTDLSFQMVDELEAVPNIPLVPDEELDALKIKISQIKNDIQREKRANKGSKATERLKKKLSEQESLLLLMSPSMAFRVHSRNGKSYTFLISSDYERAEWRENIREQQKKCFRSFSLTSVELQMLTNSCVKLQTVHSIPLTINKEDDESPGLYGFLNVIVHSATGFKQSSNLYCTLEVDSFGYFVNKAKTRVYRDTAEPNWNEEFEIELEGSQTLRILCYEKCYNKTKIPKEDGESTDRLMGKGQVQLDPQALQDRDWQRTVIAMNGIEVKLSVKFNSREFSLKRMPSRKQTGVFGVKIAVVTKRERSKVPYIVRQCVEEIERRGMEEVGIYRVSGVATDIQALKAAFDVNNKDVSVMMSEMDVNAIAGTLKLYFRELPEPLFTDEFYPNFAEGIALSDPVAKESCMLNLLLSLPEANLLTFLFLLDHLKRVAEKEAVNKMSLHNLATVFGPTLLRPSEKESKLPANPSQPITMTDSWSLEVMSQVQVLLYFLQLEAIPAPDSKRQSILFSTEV
Method in brief: (§1)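 Jurkat cells were exposed alive to nine compound concentrations (top 30 μM, 1:4 steps) or vehicle for 60 min at 37 °C and then lysed. In a second format, nine concentrations (top 30 μM, 1:5 steps) were incubated for 60 min at 4 °C with Jurkat lysate or with a 1:1:1:1 lysate mix of HEK293, K-562, HepG2 and placenta. Proteins captured on Kinobeads were digested and quantified by TMT10 LC-MS/MS. pIC50 values were derived from logistic dose-response fits (R drc package) of fold changes relative to vehicle, in biological duplicates.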

CAMK2B = CAMK2B (UniProt Q13554); conditions: cell material: Lysate mix
Method in brief: as §1

EPHA5 = EPHA5 (UniProt P54756); conditions: cell material: Lysate mix
Method in brief: as §1

EPHB4 = target: T2, EPHB4 (UniProt P54760); conditions: cell material: Lysate mix
T2 sequence (whole entry): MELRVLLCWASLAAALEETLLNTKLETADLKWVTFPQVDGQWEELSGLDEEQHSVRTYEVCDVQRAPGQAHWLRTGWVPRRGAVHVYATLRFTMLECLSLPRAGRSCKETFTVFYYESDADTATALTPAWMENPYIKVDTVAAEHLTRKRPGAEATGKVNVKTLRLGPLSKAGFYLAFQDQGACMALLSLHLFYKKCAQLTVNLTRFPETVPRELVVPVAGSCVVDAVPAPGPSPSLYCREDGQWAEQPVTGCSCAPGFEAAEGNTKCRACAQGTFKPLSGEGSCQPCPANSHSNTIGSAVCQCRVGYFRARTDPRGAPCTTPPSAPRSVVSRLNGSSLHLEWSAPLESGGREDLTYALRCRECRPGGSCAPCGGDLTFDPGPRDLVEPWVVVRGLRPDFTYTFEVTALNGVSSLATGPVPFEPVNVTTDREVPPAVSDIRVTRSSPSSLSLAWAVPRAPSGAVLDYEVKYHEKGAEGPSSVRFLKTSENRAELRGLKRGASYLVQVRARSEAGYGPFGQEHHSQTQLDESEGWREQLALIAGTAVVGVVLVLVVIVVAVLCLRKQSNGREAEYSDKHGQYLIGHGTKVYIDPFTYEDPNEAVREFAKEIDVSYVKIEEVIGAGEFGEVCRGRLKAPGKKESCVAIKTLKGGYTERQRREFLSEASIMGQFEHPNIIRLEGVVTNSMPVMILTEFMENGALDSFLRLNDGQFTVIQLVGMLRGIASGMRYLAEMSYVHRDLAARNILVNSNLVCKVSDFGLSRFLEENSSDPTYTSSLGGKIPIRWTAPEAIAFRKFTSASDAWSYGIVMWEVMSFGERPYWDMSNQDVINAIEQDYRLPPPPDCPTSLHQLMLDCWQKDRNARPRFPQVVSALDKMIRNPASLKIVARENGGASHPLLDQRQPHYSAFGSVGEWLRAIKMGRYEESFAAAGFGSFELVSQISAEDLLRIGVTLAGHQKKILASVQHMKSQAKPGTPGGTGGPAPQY
Method in brief: as §1

UniProt P19784 = target: UniProt P19784
Method in brief: as §1

UniProt P28482 = target: UniProt P28482
Method in brief: as §1

UniProt P35916 = conditions: cell material: Lysate mix
Method in brief: as §1

WEE1 = WEE1 (UniProt P30291)
Method in brief: as §1

| pIC50 (BCR) | pIC50 (CAMK2B) | pIC50 (EPHA5) | pIC50 (EPHB4) | pIC50 (UniProt P19784; cell material: Lysate mix) | pIC50 (UniProt P28482; cell material: Lysate mix) | pIC50 (UniProt P35916) | pIC50 (WEE1; cell material: Lysate mix) | Compound | pIC50 (UniProt P19784; cell material: Jurkat cells) | pIC50 (UniProt P19784; cell material: Jurkat lysate) | pIC50 (UniProt P28482; cell material: Jurkat cells) | pIC50 (UniProt P28482; cell material: Jurkat lysate) | pIC50 (WEE1; cell material: Jurkat lysate) | pIC50 (WEE1; cell material: Jurkat cells) |
| --- | --- | --- | --- | --- | --- | --- | --- | --- | --- | --- | --- | --- | --- | --- |
| < 4.52 | < 4.52 | < 4.52 | < 4.52 | < 4.52 | < 4.52 | < 4.52 | < 4.52 | O=C(NCCNC(=O)c1cc(Nc2cc(C3CC3)[nH]n2)nc(N2CCN(Cc3ccc(S(=O)(=O)F)cc3)CC2)n1)OC1CC/C=C/CCC1 (centres undefined) | 4.7 | < 4.52 | < 4.52 | < 4.52 | < 4.52 | – |
| < 4.52 | < 4.52 | < 4.52 | < 4.52 | < 4.52 | < 4.52 | < 4.52 | < 4.52 | Cc1cc(Nc2cc(C(=O)NCCNC(=O)OC3CC/C=C/CCC3)nc(N3CCN(Cc4ccc(S(=O)(=O)F)cc4)CC3)n2)n[nH]1 (centres undefined) | – | – | – | – | – | – |
| < 4.52 | < 4.52 | < 4.52 | < 4.52 | 5.47 | < 4.52 | < 4.52 | < 4.52 | CCNC(=O)c1cc(Nc2cc(C3CC3)[nH]n2)nc(N2CCN(Cc3ccc(S(=O)(=O)F)cc3)CC2)n1 | – | – | – | – | – | – |
| < 4.52 | < 4.52 | < 4.52 | < 4.52 | 5.1 | < 4.52 | < 4.52 | < 4.52 | CCNC(=O)c1cc(Nc2cc(C)[nH]n2)nc(N2CCN(Cc3ccc(S(=O)(=O)F)cc3)CC2)n1 | – | – | – | – | – | – |
| < 4.52 | < 4.52 | < 4.52 | < 4.52 | 4.78 | < 4.52 | < 4.52 | < 4.52 | C#CCNC(=O)c1cc(Nc2cc(C)[nH]n2)nc(N2CCN(Cc3ccc(S(=O)(=O)F)cc3)CC2)n1 | – | – | – | – | – | – |

| Compound | pIC50 (BCR) | pIC50 (CAMK2B) | pIC50 (EPHA5) | pIC50 (EPHB4) | pIC50 (UniProt P19784; cell material: Lysate mix) | pIC50 (UniProt P28482; cell material: Lysate mix) | pIC50 (UniProt P35916) | pIC50 (WEE1; cell material: Lysate mix) | pIC50 (UniProt P19784; cell material: Jurkat cells) | pIC50 (UniProt P19784; cell material: Jurkat lysate) | pIC50 (UniProt P28482; cell material: Jurkat cells) | pIC50 (UniProt P28482; cell material: Jurkat lysate) | pIC50 (WEE1; cell material: Jurkat lysate) | pIC50 (WEE1; cell material: Jurkat cells) |
| --- | --- | --- | --- | --- | --- | --- | --- | --- | --- | --- | --- | --- | --- | --- |
| C#CCNC(=O)c1cc(Nc2cc(C3CC3)[nH]n2)nc(N2CCN(Cc3ccc(S(=O)(=O)F)cc3)CC2)n1 | < 4.52 | < 4.52 | < 4.52 | < 4.52 | 4.96 | < 4.52 | < 4.52 | < 4.52 | 5.66 | < 4.52 | 5.48 | < 4.52 | < 4.52 | 5.62 |
